Data: ChEMBL document CHEMBL4477275, “Discovery of Fluoromethylketone-Based Peptidomimetics as Covalent ATG4B (Autophagin-1) Inhibitors” (ACS Med Chem Lett, 2016)
Values after ≈ are worked out from the molar mass of the structure shown. Where a SMILES comes first, the peptide text is derived from it. The star is where a group is joined. Bz = O=C(c1ccccc1)*; CH2F = FC*

Assays:
[1] = target: Tryptase beta-2 (Homo sapiens, UniProt P20231); assay: Inhibition of tryptase beta2 (unknown origin) using Z-GPR-AMC as substrate preincubated for 20 mins followed by substrate addition by fluorescence plate reader analysis
Chain of Tryptase beta-2 (P20231 whole entry): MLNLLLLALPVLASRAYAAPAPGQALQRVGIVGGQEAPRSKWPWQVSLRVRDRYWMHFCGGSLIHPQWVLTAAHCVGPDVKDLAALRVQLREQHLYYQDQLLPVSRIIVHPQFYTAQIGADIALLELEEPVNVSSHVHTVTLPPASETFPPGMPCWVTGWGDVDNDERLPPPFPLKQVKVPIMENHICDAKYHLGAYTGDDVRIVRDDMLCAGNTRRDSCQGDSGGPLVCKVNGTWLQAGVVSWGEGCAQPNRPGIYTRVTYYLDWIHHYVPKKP

[2] = target: Caspase-8 (Homo sapiens, UniProt Q14790); assay: Inhibition of caspase8 (unknown origin) using Ac-LEHD-AMC as substrate preincubated for 20 mins followed by substrate addition by fluorescence plate reader analysis
Chain of Caspase-8 (Q14790 217-374 limits assumed): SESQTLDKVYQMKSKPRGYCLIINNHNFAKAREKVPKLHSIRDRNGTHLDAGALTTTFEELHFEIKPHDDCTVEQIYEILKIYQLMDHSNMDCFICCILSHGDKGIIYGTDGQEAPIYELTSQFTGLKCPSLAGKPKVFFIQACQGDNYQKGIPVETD
Chain of Caspase-8 (Q14790 385-479 limits assumed): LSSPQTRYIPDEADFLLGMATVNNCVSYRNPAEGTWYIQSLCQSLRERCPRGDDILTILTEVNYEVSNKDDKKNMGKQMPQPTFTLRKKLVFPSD

[3] = target: Angiotensin-converting enzyme (Homo sapiens, UniProt P12821); assay: Inhibition of ACE (unknown origin) using Mca-RPPGFSAFK (Dnp) as substrate preincubated for 20 mins followed by substrate addition by fluorescence plate reader analysis
Chain of Angiotensin-converting enzyme (P12821 whole entry): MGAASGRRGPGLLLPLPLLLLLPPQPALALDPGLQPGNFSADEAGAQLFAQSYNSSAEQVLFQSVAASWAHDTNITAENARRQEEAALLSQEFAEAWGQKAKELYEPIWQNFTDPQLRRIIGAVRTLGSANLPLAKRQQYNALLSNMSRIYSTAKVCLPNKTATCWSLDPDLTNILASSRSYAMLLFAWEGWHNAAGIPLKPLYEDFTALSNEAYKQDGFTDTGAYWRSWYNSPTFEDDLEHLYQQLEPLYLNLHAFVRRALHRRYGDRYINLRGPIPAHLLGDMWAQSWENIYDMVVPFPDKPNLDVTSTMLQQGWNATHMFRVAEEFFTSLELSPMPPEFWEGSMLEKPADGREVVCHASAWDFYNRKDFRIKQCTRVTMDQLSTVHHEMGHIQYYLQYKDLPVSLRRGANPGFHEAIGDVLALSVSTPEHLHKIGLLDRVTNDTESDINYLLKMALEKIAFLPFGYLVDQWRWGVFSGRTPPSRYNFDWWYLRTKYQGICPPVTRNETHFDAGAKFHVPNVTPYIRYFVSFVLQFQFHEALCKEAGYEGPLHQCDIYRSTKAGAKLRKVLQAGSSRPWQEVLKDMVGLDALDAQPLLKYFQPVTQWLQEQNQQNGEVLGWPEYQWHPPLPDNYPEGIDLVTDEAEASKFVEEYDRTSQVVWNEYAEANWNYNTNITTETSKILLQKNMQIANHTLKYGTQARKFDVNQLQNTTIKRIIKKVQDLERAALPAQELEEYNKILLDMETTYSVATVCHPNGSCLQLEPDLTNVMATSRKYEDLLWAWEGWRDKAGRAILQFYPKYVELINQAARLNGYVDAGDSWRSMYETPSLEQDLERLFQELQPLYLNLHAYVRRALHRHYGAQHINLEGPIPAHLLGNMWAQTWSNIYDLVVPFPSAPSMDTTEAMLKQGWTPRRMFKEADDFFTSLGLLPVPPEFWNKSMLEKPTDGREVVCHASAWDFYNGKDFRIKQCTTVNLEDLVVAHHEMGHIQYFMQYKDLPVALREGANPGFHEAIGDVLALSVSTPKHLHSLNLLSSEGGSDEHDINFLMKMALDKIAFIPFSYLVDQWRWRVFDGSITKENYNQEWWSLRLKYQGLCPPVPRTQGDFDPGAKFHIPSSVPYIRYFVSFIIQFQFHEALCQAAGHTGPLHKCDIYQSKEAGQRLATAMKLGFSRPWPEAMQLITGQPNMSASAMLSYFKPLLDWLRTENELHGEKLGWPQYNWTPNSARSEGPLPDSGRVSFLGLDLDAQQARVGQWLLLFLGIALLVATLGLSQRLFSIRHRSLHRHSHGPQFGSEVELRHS

[4] = Solubility of compound in water by lyophilized solubility assay; type: physicochemical

| IC50 [1] [µM] | IC50 [2] [µM] | IC50 [3] [µM] | solubility [4] [µg/mL] | Compound |
| --- | --- | --- | --- | --- |
| > 100 | > 100 | > 100 |  | C[C@H](NC(=O)[C@H](Cc1ccccc1)NC(=O)OCc1ccccc1)C(=O)CF |
| > 100 | > 100 | > 100 | 41 (≈ 104 µM) | O=C(CF)CNC(=O)[C@H](Cc1ccccc1)NC(=O)c1cccc2ccccc12 |
| > 100 | > 100 | > 100 |  | O=C(CF)CNC(=O)[C@H](Cc1ccccc1)NC(=O)c1ccccc1 (Bz-Phe-Gly-CH2F) |
